PubChem BioAssay AID2060892 (Molecular Pharmacology Branch, DTP, NCI, 2025)

System: HOP-62 complex spheroids with HUVEC/MSC, viability
Test: Anticancer human tumor HOP-62 cell line growth inhibition [RAS];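 also: spheroids exposed to agents for seven days before readout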;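 as to viability, T/C: 100% = DMSO vehicle control viability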
Conditions: for IC50: curve of first compound; for viability, T/C: stronger effect = lower value
From the text: RAS pathway inhibitors in Combinations in Complex Spheroids
A high-throughput screen of multi-cell type tumor spheroids was designed to identify active combinations of RAS pathway inhibitors and targeted small molecules. Complex spheroids include a stromal component modeled by human endothelial cells (HUVEC) and fibroblasts modeled by human mesenchymal stem cells (MSCs). The concentration ranges selected for each drug and investigational agent were based upon clinically achievable concentrations if the clinical Cmax of the agent was known.
Compounds. The drugs and investigational agents: abemaciclib (NSC768073), cobimetinib (NSC768068), divarasib (GDC6063, NSC841802), docetaxel (NSC628503), GDC-1971 (RLY-1971, NSC841576), gemcitabine (NSC613327), inavolisib (NSC800729), ipatasertib (NSC767898), KB-0742 (NSC834161), MRTX-1133 (NSC836407), osimertinib (NSC779217), RMC-4630 (NSC839698), RMC-6236 (NSC851965), RMC-6291 (NSC852671), Ro-3306 (NSC812927), sapanisertib (NSC764658), SN-38 (NSC673596), staurosporine (NSC755774), SY5609 (NSC837396), and tovorafenib (DAY101, NSC766906), were obtained from the National Cancer Institute (NCI) Developmental Therapeutics Program Chemical Repository. The FDA-approved anticancer drug set is available from the NCI Developmental Therapeutics Program. […] The stock solutions were prepared in dimethyl sulfoxide (DMSO, Sigma-Aldrich, St. Louis, MO, cat. D2650) at 800-fold the tested concentration and stored at -70 degrees C prior to their use. All drugs and investigational agents were tested over a range starting from a high concentration at or near the clinical Cmax and decreasing in half-log increments. If the clinical Cmax for an agent had not been determined, the highest concentration tested was 10 microM.
Cell Culture. All cells were maintained in an incubator at 37 degrees C and 5% CO2 with 95% humidity. The PDC lines were cultured according to standard operating procedures established by the NCI PDMR. All PDCs were thawed and cultured in Matrigel-coated flasks prepared with a working solution of 1X Ham's F-12 nutrient mix, without supplementation (Invitrogen, Waltham, MA, cat. 11765054), 100 U/mL penicillin-streptomycin (Invitrogen, cat. 15140122), and 2.5% Matrigel (Corning Inc., Corning, NY, cat. 354248) for the first three passages. The 362531-283-R-J2-PDC and 782815-120-R-J1-PDC lines were cultured in 6C/Colon 1B media, which includes advanced DMEM/F-12 (Thermo Fisher Scientific, cat. 12634028), 10 mM HEPES (Thermo Fisher Scientific, cat. 15630080), 1X GlutaMAX supplement (Thermo Fisher Scientific, cat. 35050061), 0.1 mg/mL primocin (InvivoGen, San Diego, CA, cat. ant-pm-2), 10% defined fetal bovine serum, heat inactivated (HyClone Laboratories Inc., Logan, UT, cat. SH30070.03HI), 50% L-WRN conditioned media (ATCC, cat. CRL-3276), 1.25 mM N-Acetyl-L-cysteine (Sigma-Aldrich, cat. A9165), 10 mM nicotinamide (Sigma-Aldrich, cat. N0636), 1X B-27 supplement (Thermo Fisher Scientific, cat. 17504044), 1X N-2 supplement (Thermo Fisher Scientific, cat. 17502048), 50 ng/mL human EGF (Thermo Fisher Scientific, cat. PHG0311), and 10 microM Y-27632 dihydrochloride (Tocris Bioscience, cat. 1254). The K12877-001-R-J1-PDC line was cultured in 6I media, which includes all 6C/Colon 1B media plus 10 ng/mL human FGF-10 (PeproTech, cat. 100-26), 1 ng/mL human FGF-2 (PeproTech, cat. 100-18B), 1 µM prostaglandin E2 (Tocris Bioscience, cat. 2296), […] hydrocortisone (Sigma-Aldrich, cat. H4001), and […] bovine insulin (Sigma-Aldrich, cat. I6634). The K86415-001-R-J1-PDC line was cultured in 6D media, which includes all 6C/Colon 1B media components minus the L-WRN conditioned media. The 485176-168-R4-J1-PDC was cultured in PANC media, which includes all 6C/Colon 1B media plus 100 ng/mL human FGF-10 (PeproTech, cat. 100-26), 500 nM SB-431542 (Selleckchem, cat. S1067), and 10 nM gastrin (Tocris Bioscience, cat. 3006). […]

C[C@@H](NC(=O)c1ncnc(N)c1Cl)c1ncc(C(=O)Nc2cc(C(F)(F)F)c(Cl)cn2)s1 + CCn1c(-c2cccnc2C(C)OC)c2c3cc(ccc31)N1CCOC(CC(NC(=O)C(C(C)C)N(C)C(=O)C3(F)CCN(C(=O)C#CC(C)(C)N(C)C)CC3)C(=O)N3CCCC(N3)C(=O)OCC(C)(C)C2)C1
IC50 (second compound 0.000949 µM): > 10 µM | IC50 (second compound 0.003 µM): > 10 µM | IC50 (second compound 0.00949 µM): > 10 µM | IC50 (second compound 0.03 µM): > 10 µM | IC50 (second compound 0.0949 µM): > 10 µM | IC50 (second compound 0.3 µM): > 10 µM | viability, T/C (second compound 0.000949 µM, first compound 0.0316 µM): 113% | viability, T/C (second compound 0.000949 µM, first compound 0.1 µM): 93% | viability, T/C (second compound 0.000949 µM, first compound 0.316 µM): 86.2% | viability, T/C (second compound 0.000949 µM, first compound 1 µM): 109% | viability, T/C (second compound 0.000949 µM, first compound 3.16 µM): 108% | viability, T/C (second compound 0.000949 µM, first compound 10 µM): 65.3% | viability, T/C (second compound 0.003 µM, first compound 0.0316 µM): 115% | viability, T/C (second compound 0.003 µM, first compound 0.1 µM): 103% | viability, T/C (second compound 0.003 µM, first compound 0.316 µM): 87.9% | viability, T/C (second compound 0.003 µM, first compound 1 µM): 108% | viability, T/C (second compound 0.003 µM, first compound 3.16 µM): 87% | viability, T/C (second compound 0.003 µM, first compound 10 µM): 67.7% | viability, T/C (second compound 0.00949 µM, first compound 0.0316 µM): 95% | viability, T/C (second compound 0.00949 µM, first compound 0.1 µM): 94.8% | viability, T/C (second compound 0.00949 µM, first compound 0.316 µM): 85.3% | viability, T/C (second compound 0.00949 µM, first compound 1 µM): 96.2% | viability, T/C (second compound 0.00949 µM, first compound 3.16 µM): 77.7% | viability, T/C (second compound 0.00949 µM, first compound 10 µM): 70.6% | viability, T/C (second compound 0.03 µM, first compound 0.0316 µM): 96.8% | viability, T/C (second compound 0.03 µM, first compound 0.1 µM): 89.6% | viability, T/C (second compound 0.03 µM, first compound 0.316 µM): 95.8% | viability, T/C (second compound 0.03 µM, first compound 1 µM): 82.4% | viability, T/C (second compound 0.03 µM, first compound 3.16 µM): 64.5% | viability, T/C (second compound 0.03 µM, first compound 10 µM): 76% | viability, T/C (second compound 0.0949 µM, first compound 0.0316 µM): 94.7% | viability, T/C (second compound 0.0949 µM, first compound 0.1 µM): 90.8% | viability, T/C (second compound 0.0949 µM, first compound 0.316 µM): 81.7% | viability, T/C (second compound 0.0949 µM, first compound 1 µM): 80.3% | viability, T/C (second compound 0.0949 µM, first compound 3.16 µM): 68.1% | viability, T/C (second compound 0.0949 µM, first compound 10 µM): 75.7% | viability, T/C (second compound 0.3 µM, first compound 0.0316 µM): 86.3% | viability, T/C (second compound 0.3 µM, first compound 0.1 µM): 83.9% | viability, T/C (second compound 0.3 µM, first compound 0.316 µM): 77.5% | viability, T/C (second compound 0.3 µM, first compound 1 µM): 74.4% | viability, T/C (second compound 0.3 µM, first compound 3.16 µM): 68.9% | viability, T/C (second compound 0.3 µM, first compound 10 µM): 71.2%
